Experimental data: US8518946B2, “Salts of (R)-7-[3-amino-4-(2,4,5-trifluorophenyl)butanoyl]-3-trifluoromethyl-5,6,7,8-tetrahydroimidazo[1,5-a] pyrazine-1-carboxylic acid, preparation method and medical use thereof” (Jiangsu Hengrui Medicine Co., Ltd., priority 2009, dated 2013)
Read-outs that look alike come from different tables or passages of the source.

What was measured:
normal ICR mice = test: Hypoglycemic effect, oral glucose tolerance in normal ICR mice; assay type: in vivo; conditions: 10 mg/kg by gavage, glucose 4 g/kg 15 minutes after administration
Description: To observe the effects on oral glucose tolerance of the compounds of Example 1-4 and Example 8-12 in normal ICR mice (SINO-BRITSH SIPPR/BK LAB.ANIMAL LTD., CO), the hypoglycemic effects in vivo have been evaluated using blood-glucose meter to measure and analyze the sugar content of the samples at different time points during 2 hours. The samples were taken from the mouse's tail.
The administration dose was 10 mg/kg, and the blank was administered with water. Both groups contained 5% DMSO.
The mice were administered by gavage. 4 g/kg of 10% glucose solution was administered (0.8 mL to each mice) 15 minutes after administration.
The mice were administered according to above dose (the blank group was administrated with 5% DMSO aqueous solution) and the blood sugar value was measured (−15 minutes).
15 minutes after administration, the mice were administered of 4 g/kg of 20% glucose solution and the values of blood sugar were tested by Roche ACCU-CHEK at 0, 15, 30, 45, 60, 120 minutes.

DPP-IX = target: T1, DPP-IX (Homo sapiens, UniProt Q86TI2); test: DPP-IX inhibition, Promega DPPIV-Glo Protease Assay; assay type: biochemical; conditions: read-out: IC50 DPP9
T1 construct: purchased Bioscience 80090
T1 sequence (Q86TI2 whole entry): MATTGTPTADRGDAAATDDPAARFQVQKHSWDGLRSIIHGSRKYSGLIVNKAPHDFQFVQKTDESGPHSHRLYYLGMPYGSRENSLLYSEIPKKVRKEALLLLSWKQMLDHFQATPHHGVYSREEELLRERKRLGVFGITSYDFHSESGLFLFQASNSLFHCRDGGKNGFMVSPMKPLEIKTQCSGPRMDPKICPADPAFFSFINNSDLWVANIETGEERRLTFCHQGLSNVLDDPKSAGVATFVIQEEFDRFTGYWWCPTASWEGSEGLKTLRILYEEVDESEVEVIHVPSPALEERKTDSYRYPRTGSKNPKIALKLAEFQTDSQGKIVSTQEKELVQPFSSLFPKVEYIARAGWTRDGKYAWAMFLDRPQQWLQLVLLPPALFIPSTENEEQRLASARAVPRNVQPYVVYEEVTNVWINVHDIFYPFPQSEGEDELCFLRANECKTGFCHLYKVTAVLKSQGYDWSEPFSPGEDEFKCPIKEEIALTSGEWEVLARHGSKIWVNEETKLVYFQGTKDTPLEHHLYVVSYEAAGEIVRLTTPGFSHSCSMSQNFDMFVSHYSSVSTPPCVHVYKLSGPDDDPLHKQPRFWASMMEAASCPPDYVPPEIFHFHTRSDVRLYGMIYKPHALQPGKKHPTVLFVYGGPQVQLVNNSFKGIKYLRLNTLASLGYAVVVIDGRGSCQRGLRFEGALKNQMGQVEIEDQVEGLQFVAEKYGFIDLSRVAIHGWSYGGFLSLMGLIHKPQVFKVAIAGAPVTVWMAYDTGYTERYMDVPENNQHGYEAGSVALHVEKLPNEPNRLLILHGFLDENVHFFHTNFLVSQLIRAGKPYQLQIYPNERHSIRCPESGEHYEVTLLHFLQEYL
Description: (§1) The compounds of the present invention were tested to determine their DPP-IV, DPP-VIII, DPP-IX inhibition activity according to the following methods. The half inhibition concentrations IC50 (the concentration of the test compound showing 50% inhibition to the enzyme activity) of each compound were determined by reaction test and calculation of the mixture of fixed amounts of enzyme and substrate with several different concentrations of the test compounds.
(§2) The compounds of the present invention were tested to determine the DPP-IV, DPP-VIII, DPP-IX inhibition activity in the following tests using Promega DPPIV-Glo™ Protease Assay (Cat No. G8350/G8351) Kit, wherein:
c. DPP-IX enzyme bought from Bioscience, Catalog no. 80090.
(§3) The preparation procedure of the conventional reagent such as DPPIV-Glo buffer, luciferin reagents needed in the test and the detail operation of the test can refer to the specifications of the kits. The assay was carried out as following steps:
(§4) The tested compounds were dissolved in DMSO to prepare a series of different concentrations of the test compound solution. DPPIV-Glo buffer and the freezing luciferin detection reagent were equilibrated to room temperature. The luciferin detection reagent was dissolved in moderate buffer in a brown flask to form a solution. Then DPP-IV-Glo. was dissolved in ultrapure water to give the appropriate concentration. The substrate solution and the luciferin detection reagent solution were mixed sufficiently in an appropriate ratio (the ratio of the invention is 1:49), and the mixture was layed at room temperature for 30-60 minutes. Tris buffer (2 mM, pH 8.0), the test compounds and DPP-IV (DPP-VIII or DPP-IX) were mixed and then transferred to a 96-well plate. Each test contains double-well of three-well control. The same volume of DMSO was added to the negative control and blank control. Then the 96-well plate was added with mixed solution of luciferin detection reagent and substrate to initiate the reaction. The 96-wells plate was incubated at room temperature on a plate shaker for 40 minutes after sealed. The strength of the fluorescent signal in each well was determined by microplate reader and the inhibition rate to the enzyme of the compound at this concentration was calculated by the formula as following: inhibitory rate: IR=[1−(S−B)/(N−B)]*100% • S: value of the sample • B: value of the blank control • N: value of the negative control
(§5) IC50 of the test compounds can be calculated by the inhibition rate at different concentration.

[1] = Pharmacokinetics assay in rats (LC/MS/MS plasma concentration); assay type: in vivo, SD rats; conditions: for half-life / AUC(0-t) / CL/F / Cmax / MRT / Tmax / Vd/F: both sexes, SD, rat, plasma, po, 3 mg/kg, intragastric 3.0 mg/kg; for AUC(0-t): read-out: AUC0-t; for CL/F: read-out: CL/F (converted); for Cmax: read-out: Cmax; for MRT: read-out: MRT; for Tmax: read-out: Tmax; for Vd/F: read-out: Vz/F; for F: intragastric 3.0 mg/kg (as free base), absolute bioavailability from AUC0-t vs vein injection
From the text: The compound of Example 3 was administrated intragastrically or tail vein injection to rats and the compounds of Example 1-4, Example 9 and Example 11-12 were administrated intragastrically to determine the drug concentration in plasma at different time points by LC/MS/MS measurement. The pharmacokinetics of the compounds of the present invention was studied and evaluated in rats. And the oral absolute bioavailability was investigated.
Compounds of Example 1-4, Example 9 and Example 11-12.
[…] healthy adult SD rats, male and female in half, were purchased from SINO-BRITSH SIPPR/BK LAB.ANIMAL LTD., CO, License number: SCXK (Shanghai) 2008-0016.
Vein injection group: the proper weighed test compound was dissolved in 0.5 mL of DMSO by ultrasound and then diluted with normal saline to 15 mL to form a 0.3 mg/mL solution.
Intragastrically administered group: the proper weighed test compound was dissolved in 0.5% CMC-Na by ultrasound to form a 0.3 mg/mL of suspension.
32 healthy adult SD rats, male and female in half, were divided into 8 groups so that each group consisted 4 rats. After an overnight fast, the rats were tail vein injected of the compound of Example 3 and intragastrically administered the compound of Example 3 and the salt thereof, at a dose of 3.0 mg/kg (calculated as the free base form) and a volume of 10 mL/kg.
Blood samples (0.2 mL) of the rats in vein injection group were taken from eye socket at pre administration and at 2, 15, 30 minutes and 1.0, 2.0, 4.0, 6.0, 8.0, 12.0, 24.0 hours post administration, which were stored in heparinized tubes and centrifuged for 10 minutes at 3,500 rpm. The plasma samples were stored at −20° C. until analysis. The rats were fed 2 hours after administration.
Blood samples of the rats in intragastrically administered group were taken at pre administration and at 0.5, 1.0, 2.0, 3.0, 4.0, 6.0, 8.0, 12.0, 24.0 hours post administration. The samples were treated with the same method as mentioned above.
50 μL of internal standard solution and 150 μL of methanol were added to 50 μL of rat plasma obtained at various time points after administration. Then the mixture was mixed for 3 minutes using a vortexer and centrifuged for 10 minutes at 13,500 rpm. 10 μL of the supernatant was analyzed by LC/MS/MS.
The compartmental model of pharmacokinetics was fitted for the test compounds and the major pharmacokinetic parameters were calculated by DAS 2.0 software in which Cmax and tmax were the actually measured values. The absolute bioavailability was calculated by AUC0-t taken from post administration and vein injection.

[2] = Solubility experiment in four systems; assay type: physicochemical
Description: According to the conventional solubility measurement, the solubility of the test samples were determined in four different systems: phosphate buffer solution (PBS, pH=7.4), methanol, 0.1% hydrochloric acid and water.

DPP-VIII = target: T2, DPP-VIII (Homo sapiens, UniProt Q6V1X1); test: DPP-VIII inhibition, Promega DPPIV-Glo Protease Assay; assay type: biochemical; conditions: read-out: IC50 DPP8
T2 construct: purchased Bioscience 80080
T2 sequence (Q6V1X1 whole entry): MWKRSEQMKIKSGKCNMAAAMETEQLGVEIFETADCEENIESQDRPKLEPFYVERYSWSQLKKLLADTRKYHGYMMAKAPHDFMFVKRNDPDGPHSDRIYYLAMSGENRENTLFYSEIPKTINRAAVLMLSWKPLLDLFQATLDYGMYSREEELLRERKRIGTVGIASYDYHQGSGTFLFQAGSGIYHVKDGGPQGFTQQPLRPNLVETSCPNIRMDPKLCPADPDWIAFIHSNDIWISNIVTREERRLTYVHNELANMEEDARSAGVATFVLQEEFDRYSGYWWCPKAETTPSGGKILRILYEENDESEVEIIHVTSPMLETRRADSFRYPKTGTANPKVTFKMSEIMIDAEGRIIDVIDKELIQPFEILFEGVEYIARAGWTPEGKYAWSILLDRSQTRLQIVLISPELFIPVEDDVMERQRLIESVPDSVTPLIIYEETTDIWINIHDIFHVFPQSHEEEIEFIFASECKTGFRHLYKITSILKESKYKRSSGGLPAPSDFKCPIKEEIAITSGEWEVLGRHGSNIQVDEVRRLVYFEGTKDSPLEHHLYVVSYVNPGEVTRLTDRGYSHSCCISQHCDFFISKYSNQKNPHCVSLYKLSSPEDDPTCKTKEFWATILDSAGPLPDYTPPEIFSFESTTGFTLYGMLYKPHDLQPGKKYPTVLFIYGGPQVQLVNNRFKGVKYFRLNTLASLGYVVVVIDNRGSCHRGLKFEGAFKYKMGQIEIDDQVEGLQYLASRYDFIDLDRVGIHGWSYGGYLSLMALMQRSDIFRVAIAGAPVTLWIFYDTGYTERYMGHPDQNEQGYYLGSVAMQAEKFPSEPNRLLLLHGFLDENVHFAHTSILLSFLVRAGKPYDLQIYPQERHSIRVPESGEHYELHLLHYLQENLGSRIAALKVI
Description: as §1, §2
b. DPP-VIII enzyme bought from Bioscience, Catalog no. 80080;
as §3, §4, §5

DPP-IV [3] = target: T3, DPP-IV (Homo sapiens, UniProt P27487); conditions: example 10 of PCT/CN2008/001936; cited from earlier work
T3 construct: purchased Calbiochem 317630
T3 sequence (P27487 whole entry): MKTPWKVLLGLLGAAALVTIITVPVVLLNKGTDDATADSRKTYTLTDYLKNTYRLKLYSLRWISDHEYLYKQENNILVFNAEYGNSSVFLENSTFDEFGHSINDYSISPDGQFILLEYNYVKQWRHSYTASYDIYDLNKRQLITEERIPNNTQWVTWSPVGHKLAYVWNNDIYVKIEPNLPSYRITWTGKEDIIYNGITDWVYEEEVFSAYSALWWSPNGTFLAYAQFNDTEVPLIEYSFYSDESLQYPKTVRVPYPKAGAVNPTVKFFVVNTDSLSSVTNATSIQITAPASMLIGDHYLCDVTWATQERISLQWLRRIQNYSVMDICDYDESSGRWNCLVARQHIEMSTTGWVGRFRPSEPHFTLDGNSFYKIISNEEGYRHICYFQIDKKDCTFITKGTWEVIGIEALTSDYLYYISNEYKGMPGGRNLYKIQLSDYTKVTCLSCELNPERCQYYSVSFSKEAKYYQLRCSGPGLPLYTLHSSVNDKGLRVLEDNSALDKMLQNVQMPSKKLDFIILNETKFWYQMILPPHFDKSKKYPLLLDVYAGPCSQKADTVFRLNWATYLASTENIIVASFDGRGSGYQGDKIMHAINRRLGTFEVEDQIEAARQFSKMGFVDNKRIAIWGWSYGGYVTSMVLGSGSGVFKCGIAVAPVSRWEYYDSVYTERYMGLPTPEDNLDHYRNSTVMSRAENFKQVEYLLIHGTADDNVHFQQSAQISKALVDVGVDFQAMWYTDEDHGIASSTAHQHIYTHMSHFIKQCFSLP

DPP-IV [4] = target: T3, DPP-IV; test: DPP-IV inhibition, Promega DPPIV-Glo Protease Assay; assay type: biochemical
Description: as §1, §2
a. DPP-IV enzyme bought from Calbiochem, Catalog no. 317630;
as §3, §4, §5

[5] = 0.1% hydrochloric acid, simulated gastric fluid, 0.1% hydrochloric acid, read-out: Solubility Value, 0.1% HCl
[6] = methanol, organic solvent or mixture, methanol, read-out: Solubility Value, methanol
[7] = phosphate buffer solution (PBS), pH 7.4, aqueous buffer, PBS pH 7.4, read-out: Solubility Value, PBS (pH 7.4)
[8] = water, read-out: Solubility Value, water

SMILES | Hypoglycemic rate of blood sugar of 30 minutes after administration (normal ICR mice) | IC50 (DPP-IX) | half-life [1] | AUC(0-t) [1] | CL/F [1] | Cmax [1] | MRT [1] | Tmax [1] | Vd/F [1] | F [1] | solubility [2, 5] | solubility [2, 6] | solubility [2, 7] | solubility [2, 8] | IC50 (DPP-VIII) | inhibition activity against DPP-IV (in words) (DPP-IV [3]) | IC50 (DPP-IV [4])
Cl.N[C@@H](CC(=O)N1CCn2c(C(F)(F)F)nc(C(=O)O)c2C1)Cc1cc(F)c(F)cc1F [Example 1, (R)-7-[3-Amino-4-(2,4,5-trifluorophenyl)-butanoyl]-3-trifluoromethyl-5,6,7,8-tetrahydro-imidazo[1,5-a]pyrazine-1-carboxylic acid hydrochloride] | 16.06% | 63.6 µM | 1.74 ± 0.16 h | 66.6 ± 19.5 ng·h/mL | 760 mL/min/kg | 18 ± 7.5 ng/mL | 3.17 ± 0.36 h | 2.5 ± 1 h | 114 ± 27 L/kg | 2.90% | 17.2 mg/mL | 31.3 mg/mL | 18.6 mg/mL | 20.9 mg/mL | 87.9 µM | excellent inhibition activity | 
N[C@@H](CC(=O)N1CCn2c(C(F)(F)F)nc(C(=O)O)c2C1)Cc1cc(F)c(F)cc1F.O=C(O)C[C@H](O)C(=O)O [Example 11, (R)-7-[3-Amino-4-(2,4,5-trifluorophenyl)butanoyl]-3-trifluoromethyl-5,6,7,8-tetrahydro-imidazo[1,5-a]pyrazine-1-carboxylic acid (2S)-2-hydroxybutanedioic acid] | 20.18% | 180 µM | 2.21 ± 0.69 h | 69.5 ± 25.2 ng·h/mL | 777 mL/min/kg | 13.5 ± 3.9 ng/mL | 4.5 ± 1.32 h | 1.63 ± 1.11 h | 140 ± 39 L/kg | 3.03% | 32.6 mg/mL | 5.4 mg/mL | 19.5 mg/mL | 22.2 mg/mL | 280 µM |  | 0.009 µM
N[C@@H](CC(=O)N1CCn2c(C(F)(F)F)nc(C(=O)O)c2C1)Cc1cc(F)c(F)cc1F.O=C(O)C(O)C(O)C(=O)O [Example 12, (R)-7-[3-Amino-4-(2,4,5-trifluorophenyl)butanoyl]-3-trifluoromethyl-5,6,7,8-tetrahydro-imidazo[1,5-a]pyrazine-1-carboxylic acid (2S,3S)-2,3-dihydroxybutanedioic acid] | 24.11% | 135 µM | 2.54 ± 0.86 h | 74.6 ± 21.7 ng·h/mL | 672 mL/min/kg | 17 ± 6.9 ng/mL | 4.23 ± 0.84 h | 1.75 ± 0.5 h | 154 ± 77 L/kg | 3.25% | 33.8 mg/mL | 0.5 mg/mL | 12.3 mg/mL | 19.5 mg/mL | 244 µM |  | 0.012 µM
